Results from ChEMBL document CHEMBL1136566, “Synthesis, opioid receptor binding, and functional activity of 5'-substituted 17-cyclopropylmethylpyrido[2',3':6,7]morphinans” (Bioorg Med Chem Lett, 2003).

What was measured:
[1] = Selectivity ratio was measured between kappa and delta opioid receptor
[2] = Selectivity ratio between delta and mu opioid receptor in corresponding mouse vas-deferens and guinea-pig ileal longitudinal muscle; type: functional
[3] = molecular target: Opioid receptors; mu & delta (Rattus norvegicus) (UniProt P33533+P33535); test: Selectivity ratio was measured between mu and delta opioid receptor; type: protein assay
[4] = molecular target: T1, Kappa-type opioid receptor (Cavia porcellus, UniProt P41144); test: Binding affinity for kappa opioid receptor was measured using [3H]U-69593
Mu-type opioid receptor [5] = molecular target: Mu-type opioid receptor (Rattus norvegicus, UniProt P33535); test: Binding affinity to mu opioid receptor was measured using [3H]DAMGO
[6] = molecular target: Mu-type opioid receptor (Cavia porcellus) (UniProt P97266); test: Antagonist potency against mu opioid receptor was measured in guinea-pig ileal longitudinal muscle using PL-017; type: functional
[7] = molecular target: Delta-type opioid receptor (Mus musculus) (UniProt P32300); test: Antagonist potency against delta opioid receptor was measured in mouse vas-deferens using DPDPE; type: functional
[8] = molecular target: Delta-type opioid receptor (Rattus norvegicus, UniProt P33533); test: Binding affinity to delta opioid receptor was measured using [3H]DADLE
Mu-type opioid receptor [9] = molecular target: T2, Mu-type opioid receptor (Cavia porcellus, UniProt P97266); test: Antagonist activity on agonist stimulated [35S]GTP-gamma-S, binding in guinea pig caudate membranes (10 uM DAMGO as the agonist ligand for mu-receptor); type: functional, cell membranes
[10] = molecular target: T1, Kappa-type opioid receptor; test: Antagonist activity on agonist stimulated [35S]GTP-gamma-S, binding in guinea pig caudate membranes (10 uM U69,593 as the agonist ligand for kappa-receptor); type: functional, cell membranes
Mu-type opioid receptor [11] = molecular target: T2, Mu-type opioid receptor; test: Antagonist activity on agonist stimulated [35S]GTP-gamma-S, binding in guinea pig caudate membranes (10 uM DAMGO as the agonist ligand for Mu-receptor); type: functional, cell membranes

Chain of Opioid receptors; mu & delta (Rattus norvegicus) (P33533 whole entry, looked up): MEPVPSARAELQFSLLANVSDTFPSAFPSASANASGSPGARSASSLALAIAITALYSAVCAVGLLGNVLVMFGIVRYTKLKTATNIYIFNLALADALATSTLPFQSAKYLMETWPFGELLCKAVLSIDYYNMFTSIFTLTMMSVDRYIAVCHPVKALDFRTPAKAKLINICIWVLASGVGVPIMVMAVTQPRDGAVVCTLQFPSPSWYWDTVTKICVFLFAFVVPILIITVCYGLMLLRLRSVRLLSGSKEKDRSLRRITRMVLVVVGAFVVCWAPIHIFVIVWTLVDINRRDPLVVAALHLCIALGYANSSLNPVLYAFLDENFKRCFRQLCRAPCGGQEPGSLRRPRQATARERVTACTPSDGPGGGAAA
Chain of Opioid receptors; mu & delta (Rattus norvegicus) (P33535 whole entry, looked up): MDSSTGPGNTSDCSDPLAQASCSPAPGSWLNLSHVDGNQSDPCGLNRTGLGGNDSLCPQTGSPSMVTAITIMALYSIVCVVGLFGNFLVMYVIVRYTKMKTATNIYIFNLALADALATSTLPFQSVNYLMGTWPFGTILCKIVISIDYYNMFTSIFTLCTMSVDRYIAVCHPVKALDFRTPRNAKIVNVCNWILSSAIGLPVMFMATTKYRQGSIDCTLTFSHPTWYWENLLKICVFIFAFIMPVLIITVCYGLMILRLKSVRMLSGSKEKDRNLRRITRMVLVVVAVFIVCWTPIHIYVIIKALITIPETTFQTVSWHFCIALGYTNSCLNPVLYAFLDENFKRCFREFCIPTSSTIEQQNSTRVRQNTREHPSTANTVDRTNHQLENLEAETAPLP
Chain of Delta-type opioid receptor (P33533 whole entry): as the sequence (P33533 whole entry, looked up) above
Chain of Delta-type opioid receptor (Mus musculus) (P32300 whole entry): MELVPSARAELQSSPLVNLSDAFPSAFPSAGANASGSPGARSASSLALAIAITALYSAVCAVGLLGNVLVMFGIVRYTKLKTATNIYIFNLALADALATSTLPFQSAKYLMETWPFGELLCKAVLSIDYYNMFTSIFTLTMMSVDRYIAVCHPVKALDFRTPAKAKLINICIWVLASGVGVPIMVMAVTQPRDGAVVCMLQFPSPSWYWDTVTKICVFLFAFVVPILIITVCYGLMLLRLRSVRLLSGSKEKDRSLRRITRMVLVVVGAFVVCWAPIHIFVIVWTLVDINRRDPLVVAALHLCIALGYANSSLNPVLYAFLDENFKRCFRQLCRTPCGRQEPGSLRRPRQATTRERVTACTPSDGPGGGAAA
T2 sequence (P97266 whole entry): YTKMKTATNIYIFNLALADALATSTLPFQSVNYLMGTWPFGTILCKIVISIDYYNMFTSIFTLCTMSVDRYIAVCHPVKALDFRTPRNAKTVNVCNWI
Chain of Mu-type opioid receptor (Cavia porcellus) (P97266 whole entry): as above
T1 sequence (P41144 whole entry): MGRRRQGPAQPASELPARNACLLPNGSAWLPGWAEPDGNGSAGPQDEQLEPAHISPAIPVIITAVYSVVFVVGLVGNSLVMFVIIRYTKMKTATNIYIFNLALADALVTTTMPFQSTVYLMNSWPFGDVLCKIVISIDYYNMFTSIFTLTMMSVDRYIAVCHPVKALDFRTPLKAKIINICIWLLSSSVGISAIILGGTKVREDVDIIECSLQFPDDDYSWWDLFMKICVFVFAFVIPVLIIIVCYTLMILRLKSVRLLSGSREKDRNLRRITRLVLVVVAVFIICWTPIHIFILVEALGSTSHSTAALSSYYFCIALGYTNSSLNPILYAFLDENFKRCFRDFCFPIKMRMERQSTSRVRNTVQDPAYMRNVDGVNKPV
Chain of Mu-type opioid receptor (Rattus norvegicus, UniProt P33535) (P33535 whole entry): as the sequence (P33535 whole entry, looked up) above

Structure (SMILES)	Selectivity ratio [1]	Selectivity ratio [2]	Selectivity ratio [3]	Ki [4] [nM]	Ki (Mu-type opioid receptor [5]) [nM]	Ke [6] [nM]	Ke [7] [nM]	Ki [8] [nM]	Ki (Mu-type opioid receptor [9]) [nM]	Ki [10] [nM]	Ki (Mu-type opioid receptor [11]) [nM]
Oc1ccc2c3c1O[C@H]1c4ncccc4C[C@@]4(O)[C@@H](C2)N(CC2CC2)CC[C@]314	11	5.1	1.9								
CCOC(=O)c1cnc2c(c1)C[C@@]1(O)[C@H]3Cc4ccc(O)c5c4[C@@]1(CCN3CC1CC1)[C@H]2O5		4.4									
Oc1ccc2c3c1O[C@H]1c4ncc(CNc5ccccc5)cc4C[C@@]4(O)[C@@H](C2)N(CC2CC2)CC[C@]314	10.6	0.9	3.3	19	6	5.9	6.5	1.8			
Oc1ccc2c3c1O[C@H]1c4ncc(Br)cc4C[C@@]4(O)[C@@H](C2)N(CC2CC2)CC[C@]314	46	10	12.9	55.7	15.5	36	3.6	1.2			
Oc1ccc2c3c1O[C@H]1c4[nH]c5c(c4C[C@@]4(O)[C@@H](C2)N(CC2CC2)CC[C@]314)C[C@@]1(O)[C@H]2Cc3ccc(O)c4c3[C@@]1(CCN2CC1CC1)[C@H]5O4 [NORBINALTORPHIMINE]									14.8	0.12	
Oc1ccc2c3c1O[C@H]1c4[nH]c5ccccc5c4C[C@@]4(O)[C@@H](C2)N(CC2CC2)CC[C@]314 [NALTRINDOLE]							0.53		1.8	6	
Oc1ccc2c3c1O[C@H]1c4ncc(NCc5ccccc5)cc4C[C@@]4(O)[C@@H](C2)N(CC2CC2)CC[C@]314	5.2	0.9	11.5	6.7	15	5.9	6.5	1.3			
N#Cc1cnc2c(c1)C[C@@]1(O)[C@H]3Cc4ccc(O)c5c4[C@@]1(CCN3CC1CC1)[C@H]2O5	7.5	>22	3.6	33.9	16	> 1000	44	4.5			
Oc1ccc2c3c1O[C@H]1c4ncc(-n5cccc5)cc4C[C@@]4(O)[C@@H](C2)N(CC2CC2)CC[C@]314	19		30	12.2	19	62	6.6	0.64		8.8	4.2
N=C(N)Nc1cnc2c(c1)C[C@@]1(O)[C@H]3Cc4ccc(O)c5c4[C@@]1(CCN3CC1CC1)[C@H]2O5	0.037		1.4	0.7	26	500	170	18.7		1	6.1
Nc1cnc2c(c1)C[C@@]1(O)[C@H]3Cc4ccc(O)c5c4[C@@]1(CCN3CC1CC1)[C@H]2O5	1.5	1.9	1.6			48	25				
O=[N+]([O-])c1cnc2c(c1)C[C@@]1(O)[C@H]3Cc4ccc(O)c5c4[C@@]1(CCN3CC1CC1)[C@H]2O5	17	3.8	3.2	92	17.5	200	53	5.5			
